According to ChEMBL document CHEMBL1201862, “PubChem BioAssay data set” (2004):
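1) Cells in 96-well plates. 2) Compound, 48 h, 5 concentrations. 3) Linear interpolation between surrounding doses. 4) Unreached endpoint = highest concentration. Abbreviation: GI50, concentration required for 50% inhibition of growth.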 Active and inactive are the calls of the source. Rule as the data show it: active = GI50 up to about 1.1 µM and inactive = higher.

Assays:
Test in all cases: growth of human tumour cells (NCI), 48 h
A549 = test system: A549
ACHN = test system: ACHN
EKVX = test system: EKVX
KM12 = test system: KM12
Malme-3M = test system: Malme-3M
OVCAR-3 = test system: OVCAR-3
OVCAR-4 = test system: OVCAR-4
RPMI-8226 = test system: RPMI-8226
SF-268 = test system: SF-268
SF-295 = test system: SF-295
SF-539 = test system: SF-539
SK-MEL-28 = test system: SK-MEL-28
SK-OV-3 = test system: SK-OV-3
SNB-19 = test system: SNB-19
U-251 = test system: U-251
OVCAR-5 = test system: OVCAR-5
SR = test system: SR
UACC-257 = test system: UACC-257

| SMILES | GI50 (A549) | GI50 (ACHN) | GI50 (EKVX) | GI50 (KM12) | GI50 (Malme-3M) | GI50 (OVCAR-3) | GI50 (OVCAR-4) | GI50 (RPMI-8226) | GI50 (SF-268) | GI50 (SF-295) | GI50 (SF-539) | GI50 (SK-MEL-28) | GI50 (SK-OV-3) | GI50 (SNB-19) | GI50 (U-251) | GI50 (OVCAR-5) | GI50 (SR) | GI50 (UACC-257) |
| --- | --- | --- | --- | --- | --- | --- | --- | --- | --- | --- | --- | --- | --- | --- | --- | --- | --- | --- |
| COc1ccc2c(c1)Cc1c-2[nH]c2cc3c(cc2c1=O)OCO3 | 7.31 µM (inactive) | 7.94 µM (inactive) | 23.8 µM (inactive) | 9.48 µM (inactive) | 13.7 µM (inactive) | 16.7 µM (inactive) | 25.4 µM (inactive) | 6.11 µM (inactive) | 18.7 µM (inactive) | 16.3 µM (inactive) | 14.3 µM (inactive) | 15.8 µM (inactive) | 22.3 µM (inactive) | 23 µM (inactive) | 9.89 µM (inactive) | – | – | – |
| CN(C)CCNC(=O)c1cccc2c(Nc3ccc(S(N)(=O)=O)cc3)c3ccccc3nc12 | 1.79 µM (inactive) | 1.47 µM (inactive) | 3.05 µM (inactive) | 1.72 µM (inactive) | 1.49 µM (inactive) | 1.69 µM (inactive) | 1.7 µM (inactive) | 7.08 µM (inactive) | 0.746 µM (active) | 2.01 µM (inactive) | 0.536 µM (active) | 1.57 µM (inactive) | 0.376 µM (active) | 1.05 µM (active) | 1.02 µM (active) | 2.32 µM (inactive) | 0.0551 µM (active) | 2.96 µM (inactive) |
| Cc1cc(NCCCCCCNc2cc(C)nc3cc(N(C)C)ccc23)c2ccc(N(C)C)cc2n1 | > 10 µM (inactive) | 99.8 µM (inactive) | > 100 µM (inactive) | 11.8 µM (inactive) | 13.2 µM (inactive) | 57.1 µM (inactive) | 22.6 µM (inactive) | – | 57.9 µM (inactive) | 28.2 µM (inactive) | 59.6 µM (inactive) | 29.2 µM (inactive) | 12.3 µM (inactive) | 1.67 µM (inactive) | 28.2 µM (inactive) | 22.4 µM (inactive) | 11 µM (inactive) | 31.6 µM (inactive) |
| CN1CCN(c2nc(N)c(Br)c(Cl)n2)CC1 | > 100 µM (inactive) | > 100 µM (inactive) | > 100 µM (inactive) | > 100 µM (inactive) | > 100 µM (inactive) | > 100 µM (inactive) | > 100 µM (inactive) | > 100 µM (inactive) | > 100 µM (inactive) | > 100 µM (inactive) | – | > 100 µM (inactive) | > 100 µM (inactive) | > 100 µM (inactive) | – | > 100 µM (inactive) | – | > 100 µM (inactive) |
| CCCC(=O)Nc1ccc(O)c2c1C1CCCCCC21 (configuration not stated) | > 100 µM (inactive) | 71.8 µM (inactive) | > 100 µM (inactive) | 96.4 µM (inactive) | > 100 µM (inactive) | – | 68.5 µM (inactive) | 63.1 µM (inactive) | > 100 µM (inactive) | 50.2 µM (inactive) | – | > 100 µM (inactive) | > 100 µM (inactive) | > 100 µM (inactive) | > 100 µM (inactive) | – | 82.2 µM (inactive) | 46.7 µM (inactive) |
| COc1ccc(C(=O)O/N=C2\CCCC\C2=C/c2ccccc2)cc1 | > 100 µM (inactive) | 67.3 µM (inactive) | > 100 µM (inactive) | – | – | – | 27.6 µM (inactive) | – | 67.1 µM (inactive) | – | 27.5 µM (inactive) | > 100 µM (inactive) | > 100 µM (inactive) | 58.3 µM (inactive) | 57.3 µM (inactive) | – | – | – |
| O=C(/C=C/c1ccccc1)CC(=O)CCC(=O)Nc1ccc(Cl)cc1 | > 100 µM (inactive) | 23.6 µM (inactive) | > 100 µM (inactive) | 44.4 µM (inactive) | > 100 µM (inactive) | > 100 µM (inactive) | > 100 µM (inactive) | > 100 µM (inactive) | 60.3 µM (inactive) | > 100 µM (inactive) | > 100 µM (inactive) | – | > 100 µM (inactive) | > 100 µM (inactive) | > 100 µM (inactive) | > 100 µM (inactive) | – | 77.3 µM (inactive) |
| Cc1ccc(NC(=O)CCc2cc(C(C)(C)C)nc(S)n2)cc1C | > 100 µM (inactive) | > 100 µM (inactive) | > 100 µM (inactive) | > 100 µM (inactive) | > 100 µM (inactive) | > 100 µM (inactive) | – | > 100 µM (inactive) | > 100 µM (inactive) | > 100 µM (inactive) | > 100 µM (inactive) | > 100 µM (inactive) | > 100 µM (inactive) | > 100 µM (inactive) | > 100 µM (inactive) | > 100 µM (inactive) | > 100 µM (inactive) | > 100 µM (inactive) |
| c1ccc(OC2=NC3=S(S2)SC(Oc2ccccc2)=N3)cc1 | 21.6 µM (inactive) | 19.2 µM (inactive) | 21.5 µM (inactive) | 16.9 µM (inactive) | 18.3 µM (inactive) | 14.5 µM (inactive) | – | 4.83 µM (inactive) | 21.7 µM (inactive) | 17 µM (inactive) | 22.3 µM (inactive) | – | 28.2 µM (inactive) | 20.4 µM (inactive) | 11.2 µM (inactive) | 20.5 µM (inactive) | – | 16.7 µM (inactive) |
| CCCCCCCCCCCCCCCCCC(CCCCCCCCCCCCCCCCC)OP(=O)(O)O | > 100 µM (inactive) | > 100 µM (inactive) | > 100 µM (inactive) | > 100 µM (inactive) | > 100 µM (inactive) | > 100 µM (inactive) | > 100 µM (inactive) | > 100 µM (inactive) | > 100 µM (inactive) | > 100 µM (inactive) | – | > 100 µM (inactive) | > 100 µM (inactive) | > 100 µM (inactive) | > 100 µM (inactive) | > 100 µM (inactive) | 42.9 µM (inactive) | > 100 µM (inactive) |
| CC#COP(=O)(OCC)OCC | > 100 µM (inactive) | > 100 µM (inactive) | > 100 µM (inactive) | > 100 µM (inactive) | > 100 µM (inactive) | > 100 µM (inactive) | > 100 µM (inactive) | 85.1 µM (inactive) | > 100 µM (inactive) | > 100 µM (inactive) | > 100 µM (inactive) | – | > 100 µM (inactive) | > 100 µM (inactive) | > 100 µM (inactive) | > 100 µM (inactive) | 64.6 µM (inactive) | > 100 µM (inactive) |
| COC(=O)c1cc2ccccc2c2nc3ccccc3c(Cl)c12 | > 100 µM (inactive) | > 100 µM (inactive) | > 100 µM (inactive) | > 100 µM (inactive) | > 100 µM (inactive) | > 100 µM (inactive) | > 100 µM (inactive) | > 100 µM (inactive) | > 100 µM (inactive) | > 100 µM (inactive) | 16.6 µM (inactive) | > 100 µM (inactive) | – | 37.4 µM (inactive) | > 100 µM (inactive) | – | 51.8 µM (inactive) | > 100 µM (inactive) |
| CC1=CC[C@@H](C(C)(C)O)C[C@@H]1O | > 5000 µM (inactive) | > 5000 µM (inactive) | > 5000 µM (inactive) | > 5000 µM (inactive) | > 5000 µM (inactive) | > 5000 µM (inactive) | > 5000 µM (inactive) | – | > 5000 µM (inactive) | > 5000 µM (inactive) | > 5000 µM (inactive) | > 5000 µM (inactive) | > 5000 µM (inactive) | > 5000 µM (inactive) | > 5000 µM (inactive) | > 5000 µM (inactive) | > 5000 µM (inactive) | > 5000 µM (inactive) |
| C=CCSC[C@H](NC(=O)COc1ccccc1)C(=O)NC(C(=O)OCc1ccc([N+](=O)[O-])cc1)=C(C)C | 62.1 µM (inactive) | 54 µM (inactive) | 43.7 µM (inactive) | 73.5 µM (inactive) | > 100 µM (inactive) | 45.7 µM (inactive) | 62.2 µM (inactive) | 39.2 µM (inactive) | > 100 µM (inactive) | 50.8 µM (inactive) | – | > 100 µM (inactive) | > 100 µM (inactive) | – | 76.6 µM (inactive) | – | – | 52.4 µM (inactive) |
| CC(=O)Nc1ccc(C(=O)NN2C(=O)C(Cl)C2c2ccccc2)cc1 (configuration not stated) | > 100 µM (inactive) | > 100 µM (inactive) | > 100 µM (inactive) | – | > 100 µM (inactive) | > 100 µM (inactive) | > 100 µM (inactive) | – | > 100 µM (inactive) | > 100 µM (inactive) | > 100 µM (inactive) | > 100 µM (inactive) | > 100 µM (inactive) | > 100 µM (inactive) | > 100 µM (inactive) | > 100 µM (inactive) | – | > 100 µM (inactive) |
| CCC(C)(O)c1cn(-c2ccc(S(=O)(=O)O)cc2)nn1 (configuration not stated) | > 100 µM (inactive) | > 100 µM (inactive) | > 100 µM (inactive) | > 100 µM (inactive) | > 100 µM (inactive) | > 100 µM (inactive) | > 100 µM (inactive) | > 100 µM (inactive) | > 100 µM (inactive) | > 100 µM (inactive) | > 100 µM (inactive) | > 100 µM (inactive) | > 100 µM (inactive) | > 100 µM (inactive) | > 100 µM (inactive) | > 100 µM (inactive) | – | > 100 µM (inactive) |
| C[N+](C)(C)CC1CCCCC1=O (configuration not stated) | > 100 µM (inactive) | 16.4 µM (inactive) | 19.9 µM (inactive) | 58.2 µM (inactive) | 19.6 µM (inactive) | 19.1 µM (inactive) | – | 9.06 µM (inactive) | – | > 100 µM (inactive) | > 100 µM (inactive) | 17.3 µM (inactive) | > 100 µM (inactive) | > 100 µM (inactive) | > 100 µM (inactive) | – | – | 14.3 µM (inactive) |
| CC(=O)C1=C(O)C2C3c4c[nH]c5cccc(c45)CC3C(C)(C)N2C1=O (configuration not stated) | 28.7 µM (inactive) | 28.2 µM (inactive) | 20.6 µM (inactive) | 40.5 µM (inactive) | 33.9 µM (inactive) | 23.1 µM (inactive) | > 100 µM (inactive) | 4.85 µM (inactive) | 27.4 µM (inactive) | 24.3 µM (inactive) | 15.6 µM (inactive) | 21.6 µM (inactive) | > 100 µM (inactive) | 15.4 µM (inactive) | 17.1 µM (inactive) | 16.6 µM (inactive) | – | 62.2 µM (inactive) |
